Measurements reported in patent publication US7972785B2, “Biomarkers for liver fibrotic injury” (Industrial Technology Research Institute (ITRI), priority 2006, dated 2011).

How the values were obtained:
Male Sprague-Dawley rats = test: Serum biochemical analysis in DMN-induced rat hepatic fibrosis model; type: in vivo; settings: DMN-treatment, mean ± SD; for PT (prothrombin time): rat blood; for ACP (acid phosphatase) / AFP (a-fetoprotein) / AKP (alkaline phosphatase) / Albumin / BUN (blood urea nitrogen) / Bilirubin (total bilirubin) / CHOL (cholesterol) / GOT (glutamic oxaloacetic transaminase) / GPT (glutamic pyruvic transaminase) / Globulin / LDH (lactate dehydrogenase): rat serum
Protocol: A rat hepatic fibrosis model was set up through the use of DMN. DMN is a potent hepatoxin that specifically targets the liver and can cause liver fibrosis. The histopathological changes resulting from DMN treatment involve the rapid deposition of collagen, the major protein of fibrosis and important to the process of cirrhosis. […] The DMN-induced liver fibrosis model was performed as described in Jezequel A. M. et al. (14). Male Sprague-Dawley rats (Slc:SD; Japan SLC, Shizuoka, Japan), weighing from 300 to 350 grams, were used in the experiments. To induce hepatic fibrosis over a six-week time course experiment, the rats were given DMN (Sigma, Saint Louis, Mo.), dissolved in normal saline, three consecutive days a week for the first three consecutive weeks at the dosage of 6.7 mg/kg per body weight by intraperitoneal injection. Injection time points are shown as inverted triangles in FIG. 1. Injections were at a much lower dosage than those used in other experiments where the dosage was 100 mg/kg/day. The higher dosage can cause toxicity in rat liver (21, 22).)
Two to seven rats at each time point were treated with either DMN or with an equal volume of normal saline without DMN as the control (26 DMN-treated rats and 24 control rats). Rats were weighed and sacrificed on days 11, 18, 25, 32, 39, and 46 (sacrifice time points are shown as triangles in FIG. 1A) respectively. These triangular time points were designated as weeks 1 through 6 (FIG. 1A).
The serum of each rat, 50 rats in total, was subjected to various biochemical examinations related to liver damages. Blood samples, collected from the animals at necropsy, were used to measure serum concentrations or activity of albumin, glutamic oxaloacetic transaminase (GOT), glutamic pyruvic transaminase (GPT), total bilirubin, alkaline phosphatase (AKP), acid phosphatases (ACP), α-fetoprotein (AFP), blood urea nitrogen (BUN), cholesterol (CHOL), lactate dehydrogenase (LDH), globulin, prothrombin time (PT) and blood platelets (PLT) using an Hitachi 747 and ACL 3000 clinical chemistry analyzer system (MYCO, Renton, Wash.). […] The thirteen serum markers identified in these experiments are the same serum markers for human liver fibrosis.

[1] = tested on: Tgfβ1, Timp1, Timp2, Mmp3, Ggtp mRNA in rat liver; test: Q-RT-PCR of liver mRNA in DMN-treated rats; type: in vivo
Protocol: To gain additional information about the established animal model, Q-RT-PCR was used to evaluate the gene expression profile of transforming growth factor-1 (Tgfβ1), which is the strongest known inducer of fibrogenesis in the effector cells of hepatic fibrosis that can stimulate the adipocyte transformation (24-27). The same total RNA samples were used for both microarray and Q-RT-PCR analyses. RNA preparation and analysis were performed according to Affymetrix's (Santa Clara, Calif., U.S.A.) instructions. The TAQMAN® assays were conducted in triplicate for each sample, and a mean value was used for calculation of expression levels. To standardize the quantification of the target genes, 18S ribosomal RNA (18S rRNA) from each sample was quantified on the same plate with the target genes. […] The changes were in agreement with observations described in Jezequel A. M. et al. (14). In sum, these examinations support the DMN-induced rat hepatic fibrosis model.
To validate the microarray data, Q-RT-PCR analysis was performed for tissue inhibitor of metalloproteinase 1 (Timp1), tissue inhibitor of metalloproteinase 2 (Timp2), matrix metalloproteinase 3 (Mmp3) and gamma-glutamyl transpeptidase (Ggtp). These genes were chosen for validation because these genes occurred both in this GeneChip study and in previous studies.
Moreover, a good concordance based on the fold changes between microarray data and Q-RT-PCR results was observed. […] TAQMAN® assays were conducted in triplicate for each sample, and a mean value was used for calculation of expression levels (marked by the square). To standardize the quantification of the Timp1 transcript, 18S rRNA from each sample was quantified on the same plate as the target gene, as indicated by the log scale on the right side of plot. The expression levels of the two Timp1 transcripts, rc_AI169327_at and rc_AI169327_g_at (marked by a circle and a triangle, respectively), were set forth relative to the mean of all gene expression levels as indicated by the scale on the left side of plot.

[2] = Q-RT-PCR, DMN-treated samples, data not shown

Structure (SMILES): CN(C)N=O [DMN, Dimethylnitrosamine]
- PT (prothrombin time) (Male Sprague-Dawley rats; 1-2 wk): 18 ± 4 (8) sec
- PT (prothrombin time) (Male Sprague-Dawley rats; 3-4 wk): 20 ± 4 (9) sec
- PT (prothrombin time) (Male Sprague-Dawley rats; 5-6 wk): 22 ± 5 (6) sec
- ACP (acid phosphatase) (Male Sprague-Dawley rats; 1-2 wk): 1.9 ± 0.6 (4) mg/dl
- AFP (a-fetoprotein) (Male Sprague-Dawley rats; 1-2 wk): 0.40 ± 0.19 (4) ng/dl
- AKP (alkaline phosphatase) (Male Sprague-Dawley rats; 1-2 wk): 600.8 ± 93.0 (4) KA
- Albumin (Male Sprague-Dawley rats; 1-2 wk): 3.9 ± 0.7 (7) g/dl
- BUN (blood urea nitrogen) (Male Sprague-Dawley rats; 1-2 wk): 33 ± 4 (4) mg/dl
- Bilirubin (total bilirubin) (Male Sprague-Dawley rats; 1-2 wk): 0.72 ± 0.53 (8) mg/dl
- CHOL (cholesterol) (Male Sprague-Dawley rats; 1-2 wk): 77 ± 8 (4) mg/dl
- GOT (glutamic oxaloacetic transaminase) (Male Sprague-Dawley rats; 1-2 wk): 661.5 ± 134.4 (8) U/l
- GPT (glutamic pyruvic transaminase) (Male Sprague-Dawley rats; 1-2 wk): 459.5 ± 78.5 (8) U/l
- Globulin (Male Sprague-Dawley rats; 1-2 wk): 6.7 ± 0.1 (2) g/dl
- LDH (lactate dehydrogenase) (Male Sprague-Dawley rats; 1-2 wk): 414.8 ± 102.7 (4) IU/l
- ACP (acid phosphatase) (Male Sprague-Dawley rats; 3-4 wk): 6.2 ± 1.1 (4) mg/dl
- AFP (a-fetoprotein) (Male Sprague-Dawley rats; 3-4 wk): 0.38 ± 0.05 (4) ng/dl
- AKP (alkaline phosphatase) (Male Sprague-Dawley rats; 3-4 wk): 668.3 ± 222.0 (3) KA
- Albumin (Male Sprague-Dawley rats; 3-4 wk): 3.5 ± 0.6 (11) g/dl
- BUN (blood urea nitrogen) (Male Sprague-Dawley rats; 3-4 wk): 36 ± 2 (4) mg/dl
- Bilirubin (total bilirubin) (Male Sprague-Dawley rats; 3-4 wk): 1.01 ± 0.74 (11) mg/dl
- CHOL (cholesterol) (Male Sprague-Dawley rats; 3-4 wk): 70 ± 13 (6) mg/dl
- GOT (glutamic oxaloacetic transaminase) (Male Sprague-Dawley rats; 3-4 wk): 1006.1 ± 749.6 (11) U/l
- GPT (glutamic pyruvic transaminase) (Male Sprague-Dawley rats; 3-4 wk): 566.6 ± 313.5 (11) U/l
- Globulin (Male Sprague-Dawley rats; 3-4 wk): 5.0 ± 0.8 (4) g/dl
- LDH (lactate dehydrogenase) (Male Sprague-Dawley rats; 3-4 wk): 562.0 ± 120.8 (3) IU/l
- ACP (acid phosphatase) (Male Sprague-Dawley rats; 5-6 wk): 8.2 ± 0.6 (2) mg/dl
- AFP (a-fetoprotein) (Male Sprague-Dawley rats; 5-6 wk): 0.35 ± 0.07 (2) ng/dl
- AKP (alkaline phosphatase) (Male Sprague-Dawley rats; 5-6 wk): 468 ± 12.7 (2) KA
- Albumin (Male Sprague-Dawley rats; 5-6 wk): 3.2 ± 0.1 (7) g/dl
- BUN (blood urea nitrogen) (Male Sprague-Dawley rats; 5-6 wk): 31 ± 5 (2) mg/dl
- Bilirubin (total bilirubin) (Male Sprague-Dawley rats; 5-6 wk): 1.13 ± 1.00 (7) mg/dl
- CHOL (cholesterol) (Male Sprague-Dawley rats; 5-6 wk): 67 ± 18 (5) mg/dl
- GOT (glutamic oxaloacetic transaminase) (Male Sprague-Dawley rats; 5-6 wk): 1572.9 ± 965.3 (7) U/l
- GPT (glutamic pyruvic transaminase) (Male Sprague-Dawley rats; 5-6 wk): 763.6 ± 405.2 (7) U/l
- Globulin (Male Sprague-Dawley rats; 5-6 wk): 3.6 ± 0.3 (2) g/dl
- LDH (lactate dehydrogenase) (Male Sprague-Dawley rats; 5-6 wk): 853.5 ± 91.2 (2) IU/l
- Tgfβ1 mRNA expression in liver vs controls ([1]; Q-RT-PCR, DMN-treated rat livers): higher level of mRNA expression
- Ggtp expression [1, 2]: elevated
- Mmp3 expression [1, 2]: elevated
- Timp2 expression [1, 2]: elevated
- Timp1 expression elevation in DMN-treated rats ([1]; both microarray and Q-RT-PCR experiments): over 20 fold
